The text below walks through data of PubChem BioAssay (NCI).

Some test systems named below: UACC-257 melanoma; ACHN renal; SF-539 CNS; MDA-MB-231 breast; SF-268 CNS; DU-145 prostate; CCRF-CEM leukemia; OVCAR-3 ovarian; RPMI-8226 leukemia; HT29 colon.
Common to all, as to assay: growth of human tumour cells (NCI), 48 h

Molecules are shown by their SMILES.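 Each compound was tested at five concentrations against cells in 96-well plates for 48 hours. At the TGI there is no net growth.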 Where a SMILES comes first, the peptide text is derived from it. [ ]: non-standard residue; d: D form. The star is where a group is joined. Hyp = O=C(O)[CH]1C[CH](O)CN1; Cbz = O=C(OCc1ccccc1)* A value given as a limit tells only on which side of the number the result lay.

Consider `O=C1NC(=O)C23C(=O)NC(=O)C12C1C=CC3CC1` (stereo not drawn), for which the TGI with UACC-257 melanoma, with ACHN renal, with SF-539 CNS, with MDA-MB-231 breast, in the assay with SF-268 CNS and in the assay with DU-145 prostate was more than 10 µM throughout. Also, the TGI in the assay with CCRF-CEM leukemia, in the assay on OVCAR-3 ovarian, in the assay with RPMI-8226 leukemia and in the assay on HT29 colon was more than 10 µM in each case.

Turning to `COC(=O)C1=C(C(=O)OC)N(c2ccncc2)C(c2ccco2)=CC1c1ccccc1[N+](=O)[O-]` (stereo not drawn), the TGI amounted to 4.25 µM in the assay with UACC-257 melanoma; 3.47 µM with ACHN renal; 3.6 µM in the assay on SF-539 CNS; 27.5 µM in the assay with MDA-MB-231 breast; 20.8 µM in the assay with SF-268 CNS; 18 µM with DU-145 prostate. Also, the TGI was 7.43 µM with CCRF-CEM leukemia, more than 28.4 µM with OVCAR-3 ovarian, 5.69 µM in the assay with RPMI-8226 leukemia and 3.95 µM in the assay on HT29 colon.

In the case of `C#C[C@@H](OC(=O)c1ccc([N+](=O)[O-])cc1)[C@@H]1C[C@H]2O[C@@H]([C@H](C/C=C/CC)OC(=O)c3ccc([N+](=O)[O-])cc3)C[C@H]2O1`, the TGI in the assay with UACC-257 melanoma, in the assay on ACHN renal, in the assay with SF-539 CNS, in the assay with MDA-MB-231 breast, with SF-268 CNS and in the assay with DU-145 prostate was more than 100 µM in each case. The TGI in the assay on CCRF-CEM leukemia, in the assay with OVCAR-3 ovarian, in the assay on RPMI-8226 leukemia and in the assay with HT29 colon was more than 100 µM in each case.

As to `O=S(=O)(N1CCCCN(S(=O)(=O)C(F)(F)F)CCCN(S(=O)(=O)C(F)(F)F)CCCCN(S(=O)(=O)C(F)(F)F)CCCN(S(=O)(=O)C(F)(F)F)CCCCN(S(=O)(=O)C(F)(F)F)CCCN(S(=O)(=O)C(F)(F)F)CCCCN(S(=O)(=O)C(F)(F)F)CCC1)C(F)(F)F`, the TGI in the assay with UACC-257 melanoma, with ACHN renal, in the assay on SF-539 CNS, with MDA-MB-231 breast, in the assay on SF-268 CNS and with DU-145 prostate was more than 31.6 µM throughout. Besides, the TGI in the assay with CCRF-CEM leukemia was more than 31.6 µM; with OVCAR-3 ovarian, more than 31.6 µM; with RPMI-8226 leukemia, more than 100 µM; in the assay on HT29 colon, more than 31.6 µM.

Turning to `O=c1[nH]nc(Cc2ccc(Cl)cc2)n1CCO`, the TGI in the assay on UACC-257 melanoma, in the assay on ACHN renal, in the assay with SF-539 CNS, in the assay with MDA-MB-231 breast, in the assay on SF-268 CNS and with DU-145 prostate was more than 100 µM in each case. Moreover, the TGI in the assay with OVCAR-3 ovarian, with RPMI-8226 leukemia and in the assay with HT29 colon was more than 100 µM throughout.

Regarding `O=C1/C(=C\c2cccc(Oc3ccccc3)c2)SC(c2ccccc2)N1Cc1ccccc1` (stereo not drawn), the TGI in the assay on UACC-257 melanoma was 87.9 µM; in the assay on ACHN renal it was more than 100 µM; with SF-539 CNS, 37.3 µM; in the assay with MDA-MB-231 breast, more than 100 µM; in the assay with SF-268 CNS it was more than 100 µM; in the assay on DU-145 prostate, more than 100 µM. Further, the TGI in the assay on CCRF-CEM leukemia came out at 45.5 µM; in the assay with OVCAR-3 ovarian, 70 µM; in the assay with RPMI-8226 leukemia, 57.4 µM; with HT29 colon it was 51.2 µM.

In the case of `NC(=O)CNC(=O)C1CC(O)CN1C(=O)C1CCCN1C(=O)OCc1ccccc1` (stereo not drawn) (Cbz-Pro-[Hyp]-Gly-NH2; configuration not given here), the TGI in the assay on UACC-257 melanoma, in the assay with ACHN renal, in the assay on MDA-MB-231 breast, with SF-268 CNS, in the assay with DU-145 prostate and with CCRF-CEM leukemia was more than 100 µM each time. The TGI with OVCAR-3 ovarian, in the assay with RPMI-8226 leukemia and with HT29 colon was more than 100 µM each time.

Take `CC(=S)NC=C(C(N)=O)C(N)=O`: the TGI with UACC-257 melanoma, with ACHN renal, in the assay with SF-539 CNS, in the assay on MDA-MB-231 breast, with SF-268 CNS and with DU-145 prostate was more than 100 µM each time. Besides, the TGI in the assay on CCRF-CEM leukemia, with OVCAR-3 ovarian, with RPMI-8226 leukemia and with HT29 colon was more than 100 µM each time.

Take `c1cc2nnc1SCCSCCCSCCS2`: the TGI in the assay with UACC-257 melanoma was more than 100 µM; with ACHN renal it was more than 100 µM; with SF-539 CNS it was 58.2 µM; in the assay on MDA-MB-231 breast it was more than 100 µM; in the assay with SF-268 CNS, more than 100 µM; with DU-145 prostate it was more than 100 µM. Besides, the TGI in the assay with CCRF-CEM leukemia, in the assay on OVCAR-3 ovarian, in the assay on RPMI-8226 leukemia and with HT29 colon was more than 100 µM throughout.

With `OCCCN=C1N=C(Cl)/C(=C\c2ccccc2)N1`, the TGI with UACC-257 melanoma, with ACHN renal, in the assay with SF-539 CNS, in the assay on MDA-MB-231 breast, with SF-268 CNS and with DU-145 prostate was more than 100 µM each time. The TGI with CCRF-CEM leukemia, with RPMI-8226 leukemia and in the assay on HT29 colon was more than 100 µM throughout.

Take `O=C(/C=C/c1ccc(O)c(O)c1)O[C@H]1CCCC[C@@H]1OC(=O)/C=C/c1ccc(O)c(O)c1`: the TGI in the assay on UACC-257 melanoma was 77 µM; in the assay on ACHN renal, 38.3 µM; with SF-539 CNS, more than 100 µM; in the assay with MDA-MB-231 breast, more than 100 µM; in the assay on SF-268 CNS, 38.8 µM; in the assay with DU-145 prostate it was 41.8 µM. The values for the TGI with CCRF-CEM leukemia, in the assay with OVCAR-3 ovarian and with RPMI-8226 leukemia were 61 µM, 26.7 µM and more than 100 µM, respectively.

As to `N#CC(C#N)[C@@H]1CCC=C(Sc2ccccc2)[C@H]1Sc1ccccc1`, the TGI is 6.48 µM in the assay with UACC-257 melanoma; 6.07 µM with ACHN renal; 4.6 µM in the assay with SF-539 CNS; 11.6 µM with MDA-MB-231 breast; 14.7 µM in the assay on SF-268 CNS; 10.1 µM with DU-145 prostate. Besides, the TGI in the assay with CCRF-CEM leukemia worked out at 7.26 µM; in the assay with OVCAR-3 ovarian, 12.8 µM; in the assay on HT29 colon it was 13.8 µM.

Take `O=C(c1ccccc1)N1CCC(Nc2cccnc2)O1` (stereo not drawn): the TGI with ACHN renal, in the assay on SF-539 CNS, in the assay with MDA-MB-231 breast, in the assay with SF-268 CNS, in the assay with DU-145 prostate and in the assay with CCRF-CEM leukemia was more than 100 µM in each case. Further, the TGI in the assay on OVCAR-3 ovarian and with HT29 colon was more than 100 µM throughout.
